Reference: US20260325685A1, “Radiopharmaceutical Compositions Targeting Carbonic Anhydrase IX and Uses Thereof” (RayzeBio, Inc., priority 2023, published 2026)
Read-outs that look alike come from different tables or passages of the source.

Columns and labels:
human CA-IX = biological target: T1, human CA-IX (Homo sapiens, UniProt Q16790); experiment: Surface Plasmon Resonance (SPR) binding kinetics to recombinant human CA-IX (Biacore 8K, single-cycle kinetics, 1:1 binding model); conditions: for Kd: SPR, 25° C., pH 7.4, read-out: CAIX KD
T1 construct: purchased Acro CA9-H82E3
Method in brief: (§1)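 Proteins were captured on streptavidin chips at 1200-1800 RU (CA-IX 180 s, CA-XII 75 s injection). Compound was run at 9 concentrations (100-0.39 nM) in PBS-P+ pH 7.4 with 1% DMSO, 120 s association, 1200 s dissociation, 25° C. Rate constants came from reference- and DMSO-corrected curves.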

human CA-XII = biological target: T2, human CA-XII (Homo sapiens, UniProt O43570); experiment: Surface Plasmon Resonance (SPR) binding kinetics to recombinant human CA-XII (Biacore 8K, single-cycle kinetics, 1:1 binding model); conditions: pH 7.4, read-out: CAXII KD
T2 construct: purchased Creative BioMart CA12-261H
Method in brief: as §1

T2 sequence (O43570 25-354): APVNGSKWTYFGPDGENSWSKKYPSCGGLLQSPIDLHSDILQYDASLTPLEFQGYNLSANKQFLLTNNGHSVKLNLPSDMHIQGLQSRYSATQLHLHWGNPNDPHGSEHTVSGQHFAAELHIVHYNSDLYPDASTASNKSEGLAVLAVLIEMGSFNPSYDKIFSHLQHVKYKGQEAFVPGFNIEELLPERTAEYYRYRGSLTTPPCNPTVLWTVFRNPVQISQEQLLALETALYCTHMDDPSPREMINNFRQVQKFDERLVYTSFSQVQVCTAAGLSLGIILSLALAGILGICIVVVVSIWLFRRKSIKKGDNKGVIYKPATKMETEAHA

SMILES | Kd (human CA-IX; Chelated Metal: Lu-175) [nM] | Kd (human CA-XII; Chelated Metal: Lu-175, 25° C.) [nM] | Kd (human CA-IX; Chelated Metal: None) [nM] | Ratio (CAXII/CAIX) (human CA-IX; KD ratio CAXII/CAIX, Chelated Metal: None) | Kd (human CA-XII; Chelated Metal: None, 25° C.) [nM]
CC(CCCC(=O)N1CCC(C(N)=O)(C(=O)NCC(=O)N2CCN(C(=O)CN3CCN(CC(=O)O)CCN(CC(=O)O)CCN(CC(=O)O)CC3)C[C@H]2C(=O)NCCn2cc(COc3ccc4nc(S(N)(=O)=O)sc4c3)nn2)CC1)(c1ccc(O)cc1)c1ccc(O)cc1.[Lu+3] [Compound 107.49] | < 1 | > 10 |  |  | 
CC(CCC(=O)N[C@@H](CC(=O)N[C@@H](CC(=O)N1CCN(C(=O)CN2CCN(CC(=O)O)CCN(CC(=O)O)CCN(CC(=O)O)CC2)C[C@H]1C(=O)NCCn1cc(C23CC(C(=O)Nc4nnc(S(N)(=O)=O)s4)(C2)C3)nn1)C(=O)O)C(N)=O)(c1ccc(O)cc1)c1ccc(O)cc1.[Lu+3] [Compound 107.50] | < 1 | > 10 |  |  | 
CC(CCCC(=O)N1CCC(CN)(C(=O)NCC(=O)N2CCN(C(=O)CN3CCN(CC(=O)O)CCN(CC(=O)O)CCN(CC(=O)O)CC3)C[C@@H]2C(=O)NCCn2cc(C34CC(C(=O)Nc5nnc(S(N)(=O)=O)s5)(C3)C4)nn2)CC1)(c1ccc(O)cc1)c1ccc(O)cc1.[Lu+3] [Compound 107.51] | 1 to 2.5 | > 10 |  |  | 
NC(=O)C1(C(=O)NCC(=O)N2CCN(C(=O)CN3CCN(CC(=O)O)CCN(CC(=O)O)CCN(CC(=O)O)CC3)C[C@H]2C(=O)NCCn2cc(C34CC(C(=O)Nc5nnc(S(N)(=O)=O)s5)(C3)C4)nn2)CCN(C(=O)CCn2nc(-c3ccc(O)cc3)c3ccc(O)cc32)CC1.[Lu+3] [Compound 107.52] | 1 to 2.5 | > 10 |  |  | 
CC(CCCC(=O)N1CCC(C(N)=O)(C(=O)NCC(=O)N2CCN(C(=O)CN3CCN(CC(=O)O)CCN(CC(=O)O)CCN(CC(=O)O)CC3)C[C@H]2C(=O)NCCn2cc(C34CC(c5cn6nc(S(N)(=O)=O)sc6n5)(C3)C4)nn2)CC1)(c1ccc(O)cc1)c1ccc(O)cc1 [Compound 107.53] |  |  | < 1 | **** (50 < ****) | 2.5 to 10
CCCCNc1c(F)c(S(N)(=O)=O)c(F)c(F)c1S(=O)(=O)CCOCc1cn(CCNC(=O)[C@H]2CN(C(=O)CN3CCN(CC(=O)O)CCN(CC(=O)O)CCN(CC(=O)O)CC3)CCN2C(=O)C[C@H](NC(=O)[C@@H]2COCCN2C(=O)CCCc2ccc(O)cc2)C(=O)O)nn1.[Lu+3] [Compound 107.54] | 2.5 to 10 | > 10 |  |  | 
CC(CCC(=O)N[C@@H](CC(=O)N[C@@H](CNC(=O)N1CCN(C(=O)CN2CCN(CC(=O)O)CCN(CC(=O)O)CCN(CC(=O)O)CC2)C[C@H]1C(=O)NCCn1cc(C23CC(C(=O)Nc4nnc(S(N)(=O)=O)s4)(C2)C3)nn1)C(=O)O)C(=O)O)(c1ccc(O)cc1)c1ccc(O)cc1.[Lu+3] [Compound 107.55] | < 1 | 2.5 to 10 |  |  | 
CC(CCNC(=O)N1CCC(C(N)=O)(C(=O)NCC(=O)N2CCN(C(=O)CN3CCN(CC(=O)O)CCN(CC(=O)O)CCN(CC(=O)O)CC3)C[C@H]2C(=O)NCCn2cc(C34CC(C(=O)Nc5nnc(S(N)(=O)=O)s5)(C3)C4)nn2)CC1)(c1ccc(O)cc1)c1ccc(O)cc1.[Lu+3] [Compound 107.56] | 1 to 2.5 | > 10 |  |  | 
CC(CCOC(=O)N1CCC(C(N)=O)(C(=O)NCC(=O)N2CCN(C(=O)CN3CCN(CC(=O)O)CCN(CC(=O)O)CCN(CC(=O)O)CC3)C[C@H]2C(=O)NCCn2cc(C34CC(C(=O)Nc5nnc(S(N)(=O)=O)s5)(C3)C4)nn2)CC1)(c1ccc(O)cc1)c1ccc(O)cc1.[Lu+3] [Compound 107.57] | 1 to 2.5 | > 10 |  |  | 
CC(CCCC(=O)N1CCC(C(N)=O)(C(=O)NCC(=O)N2CCN(C(=O)CN3CCN(CC(=O)O)CCN(CC(=O)O)CCN(CC(=O)O)CC3)C[C@H]2C(=O)NCCn2nnc(C34CC(C(=O)Nc5nnc(S(N)(=O)=O)s5)(C3)C4)c2C(=O)O)CC1)(c1ccc(O)cc1)c1ccc(O)cc1.[Lu+3] [Compound 107.58] | < 1 | > 10 |  |  | 
CC(CCCC(=O)N1CCC(C(N)=O)(C(=O)NCC(=O)N2CCN(C(=O)CN3CCN(CC(=O)O)CCN(CC(=O)O)CCN(CC(=O)O)CC3)C[C@@H]2C(=O)NCCn2nnc(C34CC(C(=O)Nc5nnc(S(N)(=O)=O)s5)(C3)C4)c2C(=O)O)CC1)(c1ccc(O)cc1)c1ccc(O)cc1.[Lu+3] [Compound 107.59] | < 1 | > 10 |  |  | 
CC(CCC(=O)N[C@@H](CC(=O)N[C@@H](CC(=O)N1CCN(C(=O)CN2CCN(CC(=O)O)CCN(CC(=O)O)CCN(CC(=O)O)CC2)C[C@H]1C(=O)NCCn1nnc(C23CC(C(=O)Nc4nnc(S(N)(=O)=O)s4)(C2)C3)c1C(=O)O)C(=O)O)C(=O)O)(c1ccc(O)cc1)c1ccc(O)cc1.[Lu+3] [Compound 107.60] | < 1 | 2.5 to 10 |  |  | 
CC(CCC(=O)N[C@@H](CC(=O)N[C@@H](CC(=O)N1CCN(C(=O)CN2CCN(CC(=O)O)CCN(CC(=O)O)CCN(CC(=O)O)CC2)C[C@H]1C(=O)NCCn1nnc(C(=O)O)c1C12CC(C(=O)Nc3nnc(S(N)(=O)=O)s3)(C1)C2)C(=O)O)C(=O)O)(c1ccc(O)cc1)c1ccc(O)cc1.[Lu+3] [Compound 107.61] | 1 to 2.5 | > 10 |  |  | 
